Measurements: patent US20190160035A1, “METHOD OF TREATMENT” (QBIOTICS LIMITED, priority 2016, published 2019)
Values joined by “and” are separate entries in the source; they are usually repeats but may differ in a detail not shown here. Equal entries are not always repeated.

How the values were obtained:
[1] = test system: cutaneous MCT or subcutaneous MCT; assay: Example 4: long term follow up of Example 1 dogs for tumor recurrence; format: in vivo; on Tumor recurrence at case follow-up, approx. month 2 after last treatment: key: NTR = no tumor recurrence; TR = tumor recurrence; on Tumor recurrence at case follow-up, approx. month 3 after last treatment: key: NTR = no tumor recurrence; TR = tumor recurrence; on Tumor recurrence at case follow-up, approx. month 4 after last treatment: key: NTR = no tumor recurrence; TR = tumor recurrence; on Tumor recurrence at case follow-up, approx. month 5 after last treatment: key: NTR = no tumor recurrence; TR = tumor recurrence
Protocol: The dogs of in Example 1, treated with 1.0 mg Compound 1 per mL in 40% propylene glycol solution (0.4 mL/cm^3 tumor), were followed up post-treatment.
The attending veterinarian advised dog C03-T-04 enter a new treatment program for residual tissue mass treatment due to a putative immune deficiency, and dog C03-T-07 died on Day 4 post treatment.

[2] = Example 2: body weights, clinical examinations and adverse events (VCOG-CTCAE); format: in vivo, dogs; set-up: key to Local swelling at treatment site: VCOG-CTCAE Grade classification / Pain associated with treatment site: VCOG-CTCAE Grade classification / Transient tachypnoea: VCOG-CTCAE Grade classification / Transient lethargy: VCOG-CTCAE Grade classification / Transient tachycardia: VCOG-CTCAE Grade classification / Transient elevated blood pressure reading: VCOG-CTCAE Grade classification / Transient salivation: VCOG-CTCAE Grade classification / Emesis: VCOG-CTCAE Grade classification / Wound sinus: VCOG-CTCAE Grade classification: ‘mild’ VCOG-CTCAE classification Grade 1 with no intervention required
Protocol: Body weights were collected on each enrolled dog at screening, immediately pre-treatment, at approximately 24 hours, 48 hours post-treatment, and at 7(+1) days, 14(+1) days and 21(+2) days post treatment. The percent bodyweight change is calculated as the difference between immediate pre-treatment and Day 21 (+2) post-treatment values. A positive value indicates weight gain, a negative value indicates weight loss.
Clinical parameters such as rectal temperature (° C.), heart rate (HR) per minute, respiratory rate (RR) per minute, capillary refill time (CRT) (sec), systolic and diastolic blood pressure (mmHg), and mucosal colour were collected on each enrolled dog at screening, immediately pre-treatment, at approximately 24 hours, 48 hours post-treatment, and at 7(±1), 14(±1) and 21(±2) days post treatment. With each parameter evaluated for trends over time, and in context with all other contemporaneously collected parameters, the clinical parameter data is deemed unremarkable for all trial dogs.
Dogs were evaluated for adverse events (AEs) on Days 0 (pre-treatment), 1, 2, 7(±1), 14(±1) and 21(±2) as well as interim timepoints if needed. An AE was defined as any unfavorable and unintended sign, symptom, or disease temporally associated with the use of Compound 1, whether or not related to the product (VCOG-CTCAE 2011).

[3] = test system: cutaneous Mast Cell Tumor (MCT); assay: Example 3: long term follow up of cohort 1 dogs for tumor recurrence; format: in vivo
Protocol: The dogs of cohort 1 in Example 2, treated with 1.0 mg Compound 1 per mL, were followed up post-treatment.
Dog GCV-209 was treated by surgical removal of residual tumor soon after study completion (Day 21).

[4] = cohort 3, 0.2 mg/mL, out of 7 dogs

Structure (SMILES): C/C=C(\C)C(=O)O[C@@H]1[C@@H](C)[C@@]2(O)[C@H]([C@@H]3C(C)(C)[C@]13OC(=O)[C@@H](C)CC)[C@@H]1O[C@]1(CO)[C@@H](O)[C@]1(O)C(=O)C(C)=C[C@H]12 [Compound 1, 12-tigloyl-13-(2-methylbutanoyl)-6,7-epoxy-4,5,9,12,13,20-hexahydroxy-1-tigliaen-3-one]
- Time post treatment at which tumor recurrence was identified ([1]; 196: dog C03-N-01 (approx. 6 months), 359: dog C03-T-02 (approx. 12 months)): 196 days and 359 days
- Time the dog remained tumor free post treatment ([1]; dog C03-T-06, approx. 8 months, until euthanased for diabetes and kidney failure): 265 days
- Number of dogs with residual tumor mass on Days 28-29 post treatment (retreated) ([1]; dogs C03-N-03, C03-T-01, C03-T-03): 3
- Tumor recurrence post-repeat treatment ([1]; dogs C03-N-03, C03-T-01, C03-T-03, examined out to 389, 339 and 346 days): None of these dogs exhibited tumor recurrence
- Number of dogs treated successfully with a single treatment and no tumor recurrence within the duration of assessment ([1]; of ten dogs available for follow up): 5
- Tumor recurrence at case follow-up, approx. month 1 after last treatment ([1]; one value per dog): NTR (3×) and TR (TR = tumor recurrence)
- Tumor recurrence at case follow-up, approx. month 2 after last treatment ([1]; one value per dog): NTR
- Tumor recurrence at case follow-up, approx. month 3 after last treatment ([1]; one value per dog): NTR
- Tumor recurrence at case follow-up, approx. month 4 after last treatment ([1]; one value per dog): NTR
- Tumor recurrence at case follow-up, approx. month 5 after last treatment ([1]; one value per dog): NTR
- Tumor recurrence at case follow-up, approx. month 6 after last treatment ([1]; one value per dog): NTR
- Tumor recurrence at case follow-up, approx. month 7 after last treatment ([1]; one value per dog): NTR
- Tumor recurrence at case follow-up, approx. month 9 after last treatment ([1]; one value per dog): NTR
- Tumor recurrence at case follow-up, approx. month 11 after last treatment ([1]; one value per dog): NTR
- Tumor recurrence at case follow-up, approx. month 12 after last treatment ([1]; one value per dog): TR (TR = tumor recurrence) and NTR (4×)
- Repeat treatment required ([1]; one value per dog, Example 1 dogs): Day 28 (2×) and Nil (7×) and Day 29
- Pain associated with treatment site: Incidence (%) ([2]; Grade 1, all patients (n = 27)): 14.8%
- Pain associated with treatment site: No. of events ([2]; Grade 1, all patients (n = 27)): 4
- Pain associated with treatment site (oral analgesic): Incidence (%) ([2]; Grade 2, all patients (n = 27)): 22.2%
- Pain associated with treatment site (oral analgesic): No. of events ([2]; Grade 2, all patients (n = 27)): 6
- Bilateral otitis externa (oral antibiotic): Incidence (%) ([2]; all patients (n = 27)): 3.7%
- Bilateral otitis externa (oral antibiotic): No. of events ([2]; all patients (n = 27)): 1
- Bilateral otitis externa (oral antibiotic): VCOG-CTCAE Grade classification ([2]; all patients (n = 27)): 2
- Corneal ulcer (antibiotic ointment and oral analgesic): Incidence (%) ([2]; all patients (n = 27)): 3.7%
- Corneal ulcer (antibiotic ointment and oral analgesic): No. of events ([2]; all patients (n = 27)): 1
- Corneal ulcer (antibiotic ointment and oral analgesic): VCOG-CTCAE Grade classification ([2]; all patients (n = 27)): 2
- Emesis: Incidence (%) ([2]; all patients (n = 27)): 7.4%
- Emesis: No. of events ([2]; all patients (n = 27)): 2
- Emesis: VCOG-CTCAE Grade classification ([2]; all patients (n = 27)): 1
- Flatulence (oral antibiotic): Incidence (%) ([2]; all patients (n = 27)): 3.7%
- Flatulence (oral antibiotic): No. of events ([2]; all patients (n = 27)): 1
- Flatulence (oral antibiotic): VCOG-CTCAE Grade classification ([2]; all patients (n = 27)): 2
- Local swelling at treatment site: Incidence (%) ([2]; all patients (n = 27)): 81.5%
- Local swelling at treatment site: No. of events ([2]; all patients (n = 27)): 22
- Local swelling at treatment site: VCOG-CTCAE Grade classification ([2]; all patients (n = 27)): 1
- Number of AEs of ‘mild’ VCOG-CTCAE Grade 1 (no intervention required) ([2]; all patients (n = 27)): 52
- Number of AEs requiring minimal medical intervention or additional analgesic therapy ([2]; all patients (n = 27)): 12
- Pain associated with treatment site (oral analgesic): VCOG-CTCAE Grade classification ([2]; all patients (n = 27)): 2
- Seborrhoea (oral antibiotic): Incidence (%) ([2]; all patients (n = 27)): 3.7%
- Seborrhoea (oral antibiotic): No. of events ([2]; all patients (n = 27)): 1
- Seborrhoea (oral antibiotic): VCOG-CTCAE Grade classification ([2]; all patients (n = 27)): 2
- Transient elevated blood pressure reading: Incidence (%) ([2]; all patients (n = 27)): 3.7%
- Transient elevated blood pressure reading: No. of events ([2]; all patients (n = 27)): 1
- Transient elevated blood pressure reading: VCOG-CTCAE Grade classification ([2]; all patients (n = 27)): 1
- Transient lethargy: Incidence (%) ([2]; all patients (n = 27)): 18.5%
- Transient lethargy: No. of events ([2]; all patients (n = 27)): 5
- Transient lethargy: VCOG-CTCAE Grade classification ([2]; all patients (n = 27)): 1
- Transient salivation: Incidence (%) ([2]; all patients (n = 27)): 3.7%
- Transient salivation: No. of events ([2]; all patients (n = 27)): 1
- Transient salivation: VCOG-CTCAE Grade classification ([2]; all patients (n = 27)): 1
- Transient tachycardia: Incidence (%) ([2]; all patients (n = 27)): 7.4%
- Transient tachycardia: No. of events ([2]; all patients (n = 27)): 2
- Transient tachycardia: VCOG-CTCAE Grade classification ([2]; all patients (n = 27)): 1
- Transient tachypnoea: Incidence (%) ([2]; all patients (n = 27)): 51.9%
- Transient tachypnoea: No. of events ([2]; all patients (n = 27)): 14
- Transient tachypnoea: VCOG-CTCAE Grade classification ([2]; all patients (n = 27)): 1
- Wound infection (oral antibiotic): Incidence (%) ([2]; all patients (n = 27)): 7.4%
- Wound infection (oral antibiotic): No. of events ([2]; all patients (n = 27)): 2
- Wound infection (oral antibiotic): VCOG-CTCAE Grade classification ([2]; all patients (n = 27)): 2
- Wound sinus: Incidence (%) ([2]; all patients (n = 27)): 3.7%
- Wound sinus: No. of events ([2]; all patients (n = 27)): 1
- Wound sinus: VCOG-CTCAE Grade classification ([2]; all patients (n = 27)): 1
- Total number of AEs identified ([2]; all patients (n = 27), 15 event types): 64
- Clinical parameter data (temperature, HR, RR, CRT, blood pressure, mucosal colour) ([2]; all trial dogs, screening to Day 21): unremarkable
- Number of dogs that lost weight ([2]; cohort 1, 1.0 mg/mL): 3
- Number of dogs that gained weight during the trial ([2]; cohort 1, 1.0 mg/mL, out of 10 dogs, pre-treatment to Day 21): 6
- Largest recorded weight loss ([2]; cohort 1, dog NVC-103): 3.9%
- Number of dogs that lost body weight ([2]; cohort 2, 0.5 mg/mL, out of 10 dogs): 9
- Largest recorded weight loss ([2]; cohort 2, dog GCV-204): 5.6%
- Number of dogs that gained weight [2, 4]: 3
- Number of dogs that lost weight [2, 4]: 4
- Largest recorded weight loss ([2]; cohort 3, dog NVC-304): 9.2%
- Body weight gain ([2]; dog NVC-102, cohort 1): 15%
- Pain associated with treatment site: VCOG-CTCAE Grade classification ([2]; no intervention, all patients (n = 27)): 1
- Tumor recurrence at the treatment site during the post treatment examination period ([3]; 8 dogs, examined out to 11.9 to 15.0 months post treatment): No tumor recurrence
- Tumor recurrence at case follow-up post treatment ([3]; cohort 1 dogs (1.0 mg/mL), one value per dog and examination, months 1-14 post treatment): Nil
- Day on which tumor recurrence was reported ([3]; dog NVC-110, 42 days after study completion): 63 days
